# Data as given in article PMC11519910, “Semisynthetic Ecdysteroid Cinnamate Esters and tert-Butyl Oxime Ether Derivatives with Trypanocidal Activity” (Journal of Natural Products, 2024).
# Like-named read-outs stand apart in the source and are kept apart here.
# Legend:
# T. cruzi = tested on: T. cruzi; set-up: method as in PMID 30517542; settings: free acid forms; read-out: IC50, antitrypanosomal activity; cited from earlier work
# T. cruzi epimastigotes = experiment: Trypanocidal activity against epimastigotes (XTT); type: cell-based, Trypanosoma cruzi; settings: for inhibition at 5 µM: read-out: inhibition of epimastigote proliferation; for IC50: 72 h incubation, read-out: IC50, epimastigote proliferation
# Experimental: Trypanocidal activity against epimastigotes was assessed by XTT (2,3-bis(2-methoxy-4-nitro-5-sulfophenyl)-2H-tetrazolium-5-carboxanilide). Briefly, 1.5 × 10^6 epimastigotes were seeded per well in 96-well plates. The ecdysteroid was added at 8 concentrations ranging from 25 to 0.2 μM for 72 h at 28 °C. […] Following the incubation period, the plates were examined under the microscope for sterility and growth of controls. To the plates, 50 μL of XTT and PMS (phenazine methosulfate, Sigma-Aldrich, MO, USA) solution (XTT and PMS at 0.5 and 0.025 mg/mL, respectively) was added, and the plates were then incubated at 28 °C for 3 h. The parasites were fixed by the addition of 50 μL of MeOH for 15 min before the absorbance was measured at 490 nm on a Tecan plate reader. Results were expressed as percentage cell viability relative to the vehicle control or IC50 values calculated by GraphPad Prism version 8.0. All assessments were performed in triplicates in three independent experiments.
# [1] = tested on: T. cruzi (GFPY parasite release in trypomastigote-infected RAW264.7 cells); experiment: FACS-based quantitation of released parasites from infected RAW264.7 cells; type: cell-based, Trypanosoma cruzi
# Experimental: The host RAW264.7 cells were seeded in 24-well plates at a density of 20,000 cells/mL. The cells were allowed to adhere for 24 h and infected with trypomastigotes at a multiplicity of 10. On the next day, noninternalized trypomastigotes were washed away, and fresh RPMI with 2% hiFBS was added to the wells along with the C44 at various concentrations. […] Three independent experiments in triplicates were performed to determine the activity of the ecdysteroid.
# RAW264.7 cells = experiment: cells; type: cell-based
# Experimental: Cytotoxicity or antiproliferative effects of ecdysteroid against mammalian cells was assessed using MTT (3-(4,5-dimethylthiazol-2-yl)-2,5-diphenyltetrazolium bromide). CHO or RAW264.7 cells were used for screening the compounds. Briefly, the cells were seeded at a density of 2000/well in 96-well plates. After 24 h of incubation at 37 °C and 5% CO2, ecdysteroid ([…]) was added to the cells at various concentrations. In all the experiments, podophyllotoxin was used as the positive control. In all experiments, vehicle controls were included, and the final DMSO concentration was below 0.5%. After 72 h, the plates were examined under an inverted microscope for sterility and growth of controls after the incubation period. The spent medium was removed, and 100 μL of fresh medium containing 0.5 mg/mL of the final concentration of MTT was added to the cells. The plates were incubated for 4 h at 37 °C in 5% CO2. The formazan crystals were solubilized by adding 200 μL of DMSO and mixed thoroughly. The absorbance was determined at 550 nm by using a Tecan plate reader. The values were corrected to the blank medium and vehicle control (DMSO only). Results were expressed as percentage cell viability relative to the vehicle control. Each assay was performed in technical triplicate in three independent experiments.
# [2] = tested on: T. cruzi amastigotes in CCL39 fibroblasts; experiment: Fluorescence microscopy of amastigote replication in infected CCL39 fibroblasts; type: cell-based, Trypanosoma cruzi; settings: 5 μM, of infection
# Experimental: The host CCL39 cells were seeded in 24-well plates at a density of 20,000 cells/mL. The cells were allowed to adhere for 24 h and infected with trypomastigotes at a multiplicity of 10. On the next day, non-internalized trypomastigotes were washed away, and fresh RPMI with 2% hiFBS was added to the wells along with the test substance. […] The images were analyzed on ImageJ.
SMILES,IC50 (T. cruzi) [µM],"inhibition at 5 µM (T. cruzi epimastigotes; Trypanosoma cruzi, 72 h) [%]",further results
"COc1cc(C=CC(=O)O)cc(OC)c1OC [3,4,5-trimethoxycinnamic acid]",> 600,,
"COc1ccc(C=CC(=O)O)cc1 [4-methoxycinnamic acid (p-coumaric acid), 4-methoxycinnamic acid]",> 600,,
CC(C)(O)CC[C@H]1OC(C)(C)O[C@]1(C)[C@H]1CC[C@@]2(O)C3=C/C(=N\OC(C)(C)C)[C@@H]4C[C@H]5OC(C)(C)O[C@H]5C[C@]4(C)[C@H]3CC[C@]12C [Compound 24],,≥ 30,
CC(C)(O)CC[C@H]1OC(C)(C)O[C@]1(C)[C@H]1CC=C2C3=C/C(=N/OC(C)(C)C)[C@@H]4C[C@H]5OC(C)(C)O[C@H]5C[C@]4(C)[C@H]3CC[C@@]21C [Compound 28],,≥ 30,
CC(C)(O)CC[C@@H](OC(=O)/C=C/c1ccccc1)[C@](C)(O)[C@H]1CC[C@@]2(O)C3=CC(=O)[C@@H]4C[C@@H](OC(=O)/C=C/c5ccccc5)[C@@H](O)C[C@]4(C)[C@H]3CC[C@]12C [Compound 39],,≥ 30,
CC(C)(O)CC[C@@H](OC(=O)/C=C/c1ccccc1)[C@](C)(O)[C@H]1CC[C@@]2(O)C3=CC(=O)[C@@H]4C[C@@H](O)[C@@H](OC(=O)/C=C/c5ccccc5)C[C@]4(C)[C@H]3CC[C@]12C [Compound 40],,≥ 30,
CC(C)(O)CC[C@@H](O)[C@](C)(O)[C@H]1CC=C2C3=C/C(=N\OC(C)(C)C)[C@@H]4C[C@@H](O)[C@@H](O)C[C@]4(C)[C@H]3CC[C@@]21C [Compound 42],,< 30,
CC(C)(O)CC[C@@H](O)[C@](C)(O)[C@H]1CC=C2C3=C/C(=N/OC(C)(C)C)[C@@H]4C[C@@H](O)[C@@H](O)C[C@]4(C)[C@H]3CC[C@@]21C [Compound 43],,< 30,
CC(C)(O)CC[C@@H](O)[C@](C)(O)[C@H]1CC=C2C3=C/C(=N\OC(C)(C)C)[C@@H]4C[C@@H](O)[C@@H](OC(=O)/C=C/c5ccccc5)C[C@]4(C)[C@H]3CC[C@@]21C [Compound 44],,,"IC50 (T. cruzi epimastigotes): 1.7 ± 0.2 µM; IC50 (T. cruzi epimastigotes; Trypanosoma cruzi, 72 h): < 2 µM; IC50 ([1]; Trypanosoma cruzi, 144 h, trypomastigote-infected RAW264.7 cells, FACS after 6 days): 2.7 ± 0.1 µM; inhibition of trypomastigote release ([1]; infected RAW264.7 cells): more than 95%; cytotoxicity on the host cells (RAW264.7 cells): moderate cytotoxicity; IC50 (RAW264.7 cells; Mus musculus, RAW264.7, MTT, 72 h of incubation, read-out: IC50, cell proliferation in RAW264.7 cells): 11.6 ± 1.6 µM; selectivity, T. cruzi over RAW264.7 host macrophages (RAW264.7 cells; apparent selectivity, cytotoxicity toward T. cruzi vs host cells): more than 5 fold; inhibition of amastigote replication [2]: efficiently inhibits amastigote replication"
"COc1ccc(/C=C/C(=O)O)c(OC)c1 [trans-2,4-dimethoxycinnamic acid]",> 600,,
